Article PMC12470154, “In Vitro Evaluation of Antimicrobial Amyloidogenic Peptides for the Treatment of Early and Mature Bacterial Biofilms” (International Journal of Molecular Sciences, 2025)

What was measured:
MRSA (SA 180-F strain) [1] = assay: Antibacterial activity on 0.7% agar (inhibition zone); type: cell-based, methicillin-resistant Staphylococcus aureus; set-up: key: +: The presence of a bacterial growth inhibition zone; −: The absence of a bacterial growth inhibition zone; details: drop on 0.7% agar, 24 h
Experimental: (§1) Drops of the samples were applied to the surface of solidified 0.7% agar at the concentrations indicated in Table 2 and Supplementary S2 (Figures S1–S4). After 24 h of incubation, the results were evaluated based on the presence or absence (+/−) of inhibition zones.
(§2) Once the agar solidified, drops of peptide samples at the concentrations 1, 0.1, 0.01, and 0.001 mg/mL were applied to the agar surface.

S. aureus (129B strain) [2] = assay: as above; type: cell-based, Staphylococcus aureus; set-up: key: +: The presence of a bacterial growth inhibition zone; −: The absence of a bacterial growth inhibition zone; details: drop on 0.7% agar, 24 h
Experimental: as §1, §2

[3] = test system: P. aeruginosa (2943 strain); assay: as above; type: cell-based, Pseudomonas aeruginosa; set-up: key: +: The presence of a bacterial growth inhibition zone; −: The absence of a bacterial growth inhibition zone; details: drop on 0.7% agar, 24 h
Experimental: as §1, §2

E. coli (MG1655 strain) [4] = assay: Mature biofilms, MTT assay; type: cell-based, Escherichia coli; details: mature biofilm
Experimental: (§3) After 24 h of incubation, the medium was removed. To assess the total biofilm biomass, the wells were rinsed with sterile PBS solution and stained with 0.1% crystal violet. The dye bound to the surface was then removed using 95% ethanol. To assess the presence of metabolically active cells, 0.3% MTT (PanEco Ltd., Moscow, Russia) solution was added to each well, and the plates were incubated at 37 °C for 2 h. After incubation, the MTT solution was removed, 150 µL of DMSO (Chimmed, Moscow, Russia) and 25 µL of glycine buffer were added to each well, and the plates were left at room temperature for 15 min. The resulting solutions were transferred to a flat-bottom 96-well plate, and optical density was measured at 595 nm.
(§4) A stationary-phase culture of the tested strain was diluted 100-fold in fresh medium (200 µL per well) and added to the wells of a 96-well round-bottom plate. […] After another 24 h, the medium was removed and the wells were rinsed with sterile PBS to eliminate planktonic cells. The procedures for assessing total biofilm biomass and cell metabolic activity using crystal violet and MTT assays were performed in the same manner as described above for early-stage biofilm experiments.

MRSA (SA 180-F strain) [5] = assay: Early biofilm formation, crystal violet staining; type: cell-based, methicillin-resistant Staphylococcus aureus; set-up: key: ↓: Decrease in the parameter (optical density) compared to the negative control; −: No decrease in the optical density; ↑: Reverse effect (increase in the optical density compared to the control); details: peptide present from inoculation, 24 h, OD 595 nm
Experimental: as §3

E. coli (MG1655 strain) [6] = assay: Mature biofilms, crystal violet staining; type: cell-based, Escherichia coli; set-up: key: ↓: Decrease in the parameter (optical density) compared to the negative control; −: No decrease in the optical density; ↑: Reverse effect (increase in the optical density compared to the control); details: mature biofilm: peptide added after 24 h, further 24 h, 0.01-10 mg/mL
Experimental: as §3, §4

[7] = test system: P. aeruginosa (2943 strain); assay: Mature biofilms, crystal violet staining; type: cell-based, Pseudomonas aeruginosa; set-up: key: ↓: Decrease in the parameter (optical density) compared to the negative control; −: No decrease in the optical density; ↑: Reverse effect (increase in the optical density compared to the control); details: mature biofilm: peptide added after 24 h, further 24 h, 0.01-10 mg/mL
Experimental: as §3, §4

S. aureus (129B strain) [8] = assay: Mature biofilms, MTT assay; type: cell-based, Staphylococcus aureus; set-up: key: ↓: Decrease in the parameter (optical density) compared to the negative control; −: No decrease in the optical density; ↑: Reverse effect (increase in the optical density compared to the control); details: mature biofilm: peptide added after 24 h, further 24 h; 0.01-10 mg/mL
Experimental: as §3, §4

[9] = test system: P. aeruginosa (2943 strain); assay: Early biofilm formation, MTT assay; type: cell-based, Pseudomonas aeruginosa; details: for bacterial metabolic activity (MTT): 10 mg/mL; for concentration given with ↓ (MTT): 24 h
Experimental: as §3

MRSA (SA 180-F strain) [10] = assay: Mature biofilms, MTT assay; type: cell-based, methicillin-resistant Staphylococcus aureus; details: mature biofilm
Experimental: as §3, §4

E. coli (MG1655 strain) [11] = assay: Antibacterial activity in liquid medium (optical density); type: cell-based, Escherichia coli; details: 10 mg/mL
MRSA (SA 180-F strain) [12] = assay: Mature biofilms, crystal violet staining; type: cell-based, methicillin-resistant Staphylococcus aureus; set-up: key: ↓: Decrease in the parameter (optical density) compared to the negative control; −: No decrease in the parameter; ↑: Reverse effect (increase in the optical density compared to the control); details: mature biofilm: peptide added after 24 h, further 24 h, 0.01-10 mg/mL
Experimental: as §3, §4

[13] = test system: P. aeruginosa (2943 strain); assay: Mature biofilms, MTT assay; type: cell-based, Pseudomonas aeruginosa; set-up: key: ↓: Decrease in the parameter (optical density) compared to the negative control; −: No decrease in the parameter; ↑: Reverse effect (increase in the optical density compared to the control); details: mature biofilm: peptide added after 24 h, further 24 h; 0.01-10 mg/mL
Experimental: as §3, §4

E. coli (MG1655 strain) [14] = assay: Early biofilm formation, MTT assay; type: cell-based, Escherichia coli; set-up: key: ↓: Decrease in the parameter (optical density) compared to the negative control; −: No decrease in the optical density; ↑: Reverse effect (increase in the optical density compared to the control); details: 24 h, 0.3% MTT 2 h 37 °C, OD 595 nm
Experimental: as §3

| Sequence | bacterial growth inhibition zone (MRSA (SA 180-F strain) [1]; 0.001 mg/mL) | bacterial growth inhibition zone (MRSA (SA 180-F strain) [1]; 0.01 mg/mL) | bacterial growth inhibition zone (MRSA (SA 180-F strain) [1]; 0.1 mg/mL) | bacterial growth inhibition zone (MRSA (SA 180-F strain) [1]; 1 mg/mL) | bacterial growth inhibition zone (S. aureus (129B strain) [2]; 0.001 mg/mL) | bacterial growth inhibition zone (S. aureus (129B strain) [2]; 0.01 mg/mL) | bacterial growth inhibition zone (S. aureus (129B strain) [2]; 0.1 mg/mL) | bacterial growth inhibition zone (S. aureus (129B strain) [2]; 1 mg/mL) | bacterial growth inhibition zone ([3]; 0.001 mg/mL) | bacterial growth inhibition zone ([3]; 0.01 mg/mL) | bacterial growth inhibition zone ([3]; 0.1 mg/mL) | bacterial growth inhibition zone ([3]; 1 mg/mL) | residual viability of cells (MTT) (E. coli (MG1655 strain) [4]) | change of optical density after crystal violet staining vs negative control (MRSA (SA 180-F strain) [5]) | change of optical density after crystal violet staining vs negative control (E. coli (MG1655 strain) [6]) | change of optical density after MTT assay vs negative control (S. aureus (129B strain) [8]) | bacterial metabolic activity (MTT) [9] | concentration given with ↓ (MTT) [9] | concentration given with ↓ (MTT) (MRSA (SA 180-F strain) [10]) | change of optical density after MTT assay vs negative control [13] | other results |
| --- | --- | --- | --- | --- | --- | --- | --- | --- | --- | --- | --- | --- | --- | --- | --- | --- | --- | --- | --- | --- | --- |
| RKKRRQRRRGGGGVTDFGVFVEI [R23I^T, TAT cell-penetrating peptide linked via glycine linker to amyloidogenic fragment of S1 ribosomal protein of T. thermophilus] | − | − | − | + | − | − | − | + | − | − | − | + | did not inhibit | − | − | − |  |  |  |  | change of optical density after crystal violet staining vs negative control [7]: − |
| RKKRRQRRRGGGGVVVHINGGKFGGGGSRQIKIWFQNRRMKWKK [R44K^S] | − | − | − | + | − | − | − | + | − | − | − | + | did not inhibit |  |  | − | reduced bacterial metabolic activity | 10 mg/mL | 0.01 mg/mL | ↑ | bacterial growth inhibition zone (MRSA (SA 180-F strain) [1]; 1 mg/mL, listed as R44K^P): −; bacterial growth inhibition zone ([3]; 1 mg/mL, listed as R44K^P): −; antimicrobial activity relative to meropenem (E. coli (MG1655 strain) [11]): comparable to that of meropenem; change of optical density after crystal violet staining vs negative control (MRSA (SA 180-F strain) [12]): ↑; change of optical density after MTT assay vs negative control (E. coli (MG1655 strain) [14]): −; change of optical density after crystal violet staining vs negative control (E. coli (MG1655 strain) [6]; listed as R44K^P): −; change of optical density after crystal violet staining vs negative control ([7]; listed as R44K^P): − |
| VTDFGVFVEIGGGGSRQIKIWFQNRRMKWKK [V31K^T, amyloidogenic fragment of S1 of T. thermophilus linked via glycine-rich linker to antennapedia peptide] | − | − | − | − | − | − | − | − | − | − | − | − | did not inhibit |  |  | − | reduced bacterial metabolic activity | 10 mg/mL | 0.01 mg/mL | ↑ | change of optical density after crystal violet staining vs negative control (MRSA (SA 180-F strain) [12]; listed as V31K^S): ↑; change of optical density after MTT assay vs negative control (E. coli (MG1655 strain) [14]): −; change of optical density after crystal violet staining vs negative control (E. coli (MG1655 strain) [6]; listed as V31K^S): − |
| RKKRRQRRRGGGGITDFGIFIGL [R23L^P] | − | − | − | + | − | − | − | + | − | − | − | + | did not inhibit |  |  | − |  |  | 0.01 mg/mL | ↑ | antimicrobial activity relative to meropenem (E. coli (MG1655 strain) [11]): comparable to that of meropenem |
| ITDFGIFIGLGGGGSRQIKIWFQNRRMKWKK [I31K^P] |  |  |  |  |  |  |  |  |  |  |  |  |  | − | − |  |  |  | 0.01 mg/mL | ↑ | metabolic activity of cells within mature biofilms (MTT) (MRSA (SA 180-F strain) [10]; 0.01, 0.1, 1, and 10 mg/mL): decreased the metabolic activity; change of optical density after crystal violet staining vs negative control (MRSA (SA 180-F strain) [12]): ↑ |
